Paper PMC8362065, “Easily Available, Amphiphilic Diiron Cyclopentadienyl Complexes Exhibit in Vitro Anticancer Activity in 2D and 3D Human Cancer Cells through Redox Modulation Triggered by CO Release” (Chemistry (Weinheim an Der Bergstrasse, Germany), 2021)

Experiments:
[1] = test system: 3D cell spheroids of human pancreatic (PSN‐1) cancer cells; test: Acid phosphatase (APH) assay, 3D spheroid culture; type: cell-based; conditions: PSN‐1 spheroids, 72 h, APH test
Description: (§1) The remarkable cell‐killing effect observed in 2D cultured cells prompted us to evaluate the in vitro antitumor activity of the complexes on 3D cell cultures. Differently from 2D monolayer culture, 3D spheroid cell culture systems comprise cancer cells in various cell growth stages. Consequently, the multicellular cancer spheroid model is recognized to better reflect the tumour mass in vivo regarding drug permeation, cell interactions, gene expression, hypoxia and nutrient gradients with respect to monolayer cell cultures, making 3D models more predictive than conventional 2D monolayer cultures in screening antitumor drugs.[38] Table 6 summarizes the IC50 values obtained after treatment of 3D cell spheroids of human ovarian (2008) and pancreatic (PSN‐1) cancer cells with the diiron complexes and cisplatin.
(§2) Spheroid cultures. Spheroid cultures were obtained by seeding 2.5×10^3 cells/well in round bottom non‐tissue culture treated 96 well‐plate (Greiner Bio‐one, Kremsmünster, Austria) in phenol red free RPMI‐1640 medium (Sigma Chemical Co.), containing 10 % FCS and supplemented with 20 % methyl cellulose stock solution.
(§3) Acid phosphatase (APH) assay. An APH modified assay was used for determining cell viability in 3D spheroids, as previously described.[58] IC50 values were calculated with a four‐parameter logistic (4‐PL) model. All the values are the means ± SD of not less than four independent experiments.

[2] = test system: 3D cell spheroids of human ovarian (2008) cancer cells; test: Acid phosphatase (APH) assay, 3D spheroid culture; type: cell-based; conditions: 2008 spheroids, 72 h, APH test
Description: as §1, §2, §3

[3] = Stability in D2O, D2O/CD3OD and DMSO-d6/D2O at 37 °C by 1H NMR; type: physicochemical
Method: A detailed study on the behaviour of a selection of the diiron complexes in aqueous media was undertaken. Experimental procedures are provided in the Experimental Section and in the Supporting Information, with data collected in Tables 3, S3 and S4. […] The octanol/water partition coefficients (log P ow) were measured by a UV/Vis method and fall in between 0 and −1, reflecting an amphiphilic or slightly hydrophilic character. […] Conversely, those complexes with aromatic groups (i. e., 1H‐indol‐6‐yl, 2‐naphthyl and bis‐benzyl in [2A]^+, [3G]^+, [4G]^+ and [5H]^+) are less soluble in water and display increased affinity for n‐octanol (log P ow≈0). The diiron compounds are inert in aqueous solution at room temperature, and undergo a slow degradation at 37 °C. Under such conditions, a variable amount (50 to 86 %; Table S3) of the starting material was detected by ^1H NMR in D2O or D2O/CD3OD mixtures after 72 h.[33] During this time, the precipitation of a brown solid was observed, which in one case (from a [2C]CF3SO3 solution) was separated and identified as γ‐Fe2O3 by Raman analysis. In addition, headspace GC analyses performed on 5 % MeOH aqueous solutions of the compounds maintained at 37 °C allowed the identification and quantitation of the carbon monoxide released over a 48 h period (Table S4). These facts indicate that the thermal degradation process in aqueous solution leads to the progressive disassembly of the organometallic scaffold.[16] The presumed, controlled release of the iron centres (converted to iron oxide, see above) and carbon monoxide are two aspects that deserve attention with reference to the biological activity: note that the decay of ferrocene drug candidates into Fe^II ions was previously associated to their cytotoxicity,[34] while the activity of various iron carbonyl complexes was correlated to CO dissociation in the physiological media.[35]
(§4) Stability in water (D2O) and cell culture medium. The procedures are described in the Supporting Information, and data are collected in Table S3.
(§5) Table S3. Stability of diiron complexes in D2O, D2O/CD3OD, DMSO-d6/D2O and cell culture medium (DMEM-
(§6) d/CD3OD) solution at 37 °C calculated by 1H NMR (Me2SO2 internal standard).
(§7) % starting material (72 h) % starting material
(§8) Compound D O D O/CD OD DMSO-d /D O DMEM-d
(§9) [a] X = I for the stability in D 2O, X = CF3SO3 for the stability in cell culture medium. [b] Stability in D 2O and […]

[4] = Stability in cell culture medium (DMEM) at 37 °C by 1H NMR; type: physicochemical; conditions: DMEM-d (6.6 % CD3OD)
Method: Next, the stability of the diiron compounds in a cell culture medium (DMEM) solution at 37 °C, over a shorter time range (24 h), was assessed by ^1H NMR.
as §4, §5, §6, §7, §8, §9

[5] = Octanol/water partition coefficient, shake-flask method and UV/Vis; conditions: octanol/water, 21 °C
Method: Octanol/water partition coefficients (log Pow ). Partition coefficients (P ow; IUPAC: K D partition constant[53]), defined as P ow=corg/caq, where corg and caq are molar concentrations of the selected compound in the organic and aqueous phase, respectively, were determined by the shake‐flask method and UV/Vis measurements.[[16a], [54]] Deionized water and octan‐1‐ol were vigorously stirred for 24 h, to enable saturation of both phases, then separated by centrifugation. A stock solution of the selected Fe compound (ca. 2 mg) was prepared by first adding acetone (50 μL, to help solubilization), followed by water‐saturated octanol (2.5 mL). The solution was diluted with water‐saturated octanol (ca. 1 : 3 v/v ratio, cFe2 ≈10^−4 M, so that 1.5≤A≤2.0 at λ max) and its UV/Vis spectrum was recorded ( A0/org ). An aliquot of the solution (V org=1.2 mL) was transferred into a test tube and octanol‐saturated water (V org=V aq=1.2 mL) was added. The mixture was vigorously stirred for 30 min at 21 °C then centrifuged (RCF 805, 5 min; Hettich EBA 8G). The UV/Vis spectrum of the organic phase was recorded ( Af/org ) and the partition coefficient was calculated as P ow= Af/org /( A0/org g− Af/org ) where A0/org and Af/org are the absorbance in the organic phase before and after partition with the aqueous phase, respectively.[53] For [2B]BF4, [2C]Cl and [3F]CF3SO3 an inverse procedure was followed, starting from a solution of the compound in octanol‐saturated water. The partition coefficient was calculated as P ow=( A0/aq − Af/aq )/ Af/aq where A0/aq and Af/aq are the absorbance in the aqueous phase before and after partition with the organic phase, respectively.

| Substance | IC50 [1] [µM] | IC50 [2] [µM] | % starting material (72 h) ([3]; D2O/CD3OD 5:4 v/v) [%] | % starting material (72 h) ([3]; DMSO-d6/D2O 5:3 v/v) [%] | % starting material (24 h) [4] [%] | Log P ow [5] | Log P ow ([5]; listed as [4G]^+) | % starting material (72 h) ([3]; D2O) | % starting material (72 h) ([3]; DMSO-d6/D2O 1:1 v/v) [%] | Log P ow ([5]; listed as [5H]^+) | % starting material (72 h) ([3]; D2O/CD3OD 2:1 v/v) [%] | Log P ow ([5]; listed as [2A]^+) | IC50±SD (μM) [1] | IC50±SD (μM) [2] |
| --- | --- | --- | --- | --- | --- | --- | --- | --- | --- | --- | --- | --- | --- | --- |
| [Fe2Cp2(CO)2(μ‐CO){μ‐CNEt(2‐naphthyl)}]BF4 [[4G]BF4] | 77.4 ± 8.4 | 58.9 ± 4.8 | 51 | 42 | 85 | 0.1±0.1 | ≈ 0 |  |  |  |  |  |  |  |
| [Fe2Cp2(CO)2(μ‐CO){μ‐CNBn2}]X [[5H]CF3SO3] | 86.2 ± 6.4 | 73.2 ± 6.2 | 65 |  | 75 | 0.2±0.02 |  | ca. 50% | 89 | ≈ 0 |  |  |  |  |
| [Fe2Cp2(CO)2(μ‐CO){μ‐CNMe(1H‐indol‐6‐yl)}]CF3SO3 [[2A]CF3SO3] | > 100 | > 100 |  |  | 86 | 0.0±0.1 |  |  | 89 |  | 55 | ≈ 0 |  |  |
| [Fe2Cp2(CO)2(μ‐CO){μ‐CNMe(4‐C6H4OMe)}]CF3SO3 [[2D]CF3SO3] | 53.7 ± 6.1 | 42.8 ± 4.2 |  |  | 77 | −0.25±0.04 |  | 86% |  |  |  |  |  |  |
| [Fe2Cp2(CO)2(μ‐CO){μ‐CNMe(CH2CHCH2)}]X [[3F]CF3SO3] | > 100 | > 100 |  |  |  | −1.01±0.02 |  |  |  |  |  |  | ineffective | ineffective |
| [Fe2Cp2(CO)2(μ‐CO){μ‐CNMe(C6H11)}]X [[2C]CF3SO3] | 78.2 ± 9.1 | 66.4 ± 8.6 |  |  | 85 | −0.46±0.02 |  | 75% |  |  |  |  |  |  |
| [Fe2Cp2(CO)2(μ‐CO){μ‐CNMe(CH2PO3Et2)}]X [[2B]BF4] | > 100 | > 100 |  |  | 88 |  |  | 85% |  |  | 81 |  |  |  |
